# From ChEMBL document CHEMBL1133248, “Synthesis and biological activity of phenoxyphenyl oxamic acid derivatives related to L-thyronine” (Bioorg Med Chem Lett, 2000)
# How the values were obtained:
# [1] = Inhibition of [125I]L-T3 binding to rat hepatic 3,5,3''-triiodo-L-thyronine receptor
# Rattus norvegicus [2] = assay: Atrial tension was determined after administration to rats at 100 ug/Kg for 7 days at 20 pulse/min; assay type: functional, Cardiac atrium
# Rattus norvegicus [3] = assay: Atrial tension was determined after administration to rats at 100 ug/Kg for 7 days at 40 pulse/min; assay type: functional, Cardiac atrium
# Rattus norvegicus [4] = assay: Heart rate was determined after administration to rats at 100 ug/Kg perorally for 7 days (in vivo on cardiovascular activity); assay type: functional
# Rattus norvegicus [5] = assay: Heart weight was determined after administration to rats at 100 ug/Kg perorally for 7 days (in vivo on cardiovascular activity); assay type: functional
# Rattus norvegicus [6] = assay: Atrial tension was determined after administration to rats at 25 mg/kg for 7 days at 20 pulse/min
# Rattus norvegicus [7] = assay: Atrial tension was determined after administration to rats at 25 mg/kg for 7 days at 40 pulse/min
# Rattus norvegicus [8] = assay: Heart rate was determined after administration to rats at 25 mg/kg perorally for 7 days (in vivo on cardiovascular activity)
# Rattus norvegicus [9] = assay: Heart weight was determined after administration to rats at 25 mg/kg perorally for 7 days (in vivo on cardiovascular activity)
SMILES,IC50 [1],also measured
Cc1cc(NC(=O)C(=O)O)cc(C)c1Oc1ccc(O)c(-c2ccc(C(F)(F)F)cc2)c1,14 nM,
N[C@@H](Cc1cc(I)c(Oc2ccc(O)c(I)c2)c(I)c1)C(=O)O [LIOTHYRONINE],,Developed tension (Rattus norvegicus [2]): 18.2%; Developed tension (Rattus norvegicus [3]): 12.7%; Heart rate (Rattus norvegicus [4]): 52.5; Heart weight (Rattus norvegicus [5]): 38.9
Cc1cc(Oc2c(C)cc(NC(=O)C(=O)O)cc2C)ccc1O,5.4 nM,
Cc1cc(NC(=O)C(=O)O)cc(C)c1Oc1ccc(O)c(C2CCCCC2)c1,2.2 nM,Developed tension (Rattus norvegicus [6]): 7.6%; Developed tension (Rattus norvegicus [7]): 12.6%; Heart rate (Rattus norvegicus [8]): 6.3; Heart weight (Rattus norvegicus [9]): 4.4
Cc1cc(NC(=O)C(=O)O)cc(C)c1Oc1ccc(O)c(-c2cccc(C(F)(F)F)c2)c1,0.92 nM,
Cc1cc(NC(=O)C(=O)O)cc(C)c1Oc1cccc(-c2ccccc2)c1,32 nM,
CCc1cc(Oc2c(C)cc(NC(=O)C(=O)O)cc2C)ccc1O,0.25 nM,
Cc1cc(NC(=O)C(=O)O)cc(C)c1Sc1ccc(O)c(C2CCCCC2)c1,2 nM,
Cc1cc(NC(=O)C(=O)O)cc(C)c1Oc1ccc(O)c(-c2ccccc2)c1,1.9 nM,Developed tension (Rattus norvegicus [6]): 3.7%
Cc1cc(NC(=O)C(=O)O)cc(C)c1Oc1ccc(O)c(-c2cccc(F)c2)c1,1.9 nM,
Cc1cc(NC(=O)C(=O)O)cc(C)c1S(=O)(=O)c1ccc(O)c(C2CCCCC2)c1,1.9 nM,
Cc1cc(NC(=O)C(=O)O)cc(C)c1Oc1ccc(O)c(-c2ccccc2Cl)c1,0.17 nM,
Cc1ccc(-c2cc(Oc3c(C)cc(NC(=O)C(=O)O)cc3C)ccc2O)cc1,9 nM,
Cc1cc(NC(=O)C(=O)O)cc(C)c1Oc1ccc(O)c(-c2cccc(Cl)c2)c1,0.64 nM,
